Source: US20040265252A1, “Compounds stimulating and inhibiting melanin formation, and methods for screening these compounds” (New York University, priority 2003, published 2004)

How the values were obtained:
tyrosinase [1] = assay: Tyrosinase assay on conditioned media; assay type: cell-based; conditions: conditioned media of treated cells
tyrosinase [2] = target: T1, tyrosinase (Mus musculus, UniProt P11344); assay: Tyrosinase assay on pre-lysed cells; assay type: biochemical; conditions: pre-lysed cells treated with compound
T1 construct: tyrosinase assay on cell lysates derived from whole cells; endogenous in cells; host or cells: melanocytes
T1 sequence (P11344 19-533): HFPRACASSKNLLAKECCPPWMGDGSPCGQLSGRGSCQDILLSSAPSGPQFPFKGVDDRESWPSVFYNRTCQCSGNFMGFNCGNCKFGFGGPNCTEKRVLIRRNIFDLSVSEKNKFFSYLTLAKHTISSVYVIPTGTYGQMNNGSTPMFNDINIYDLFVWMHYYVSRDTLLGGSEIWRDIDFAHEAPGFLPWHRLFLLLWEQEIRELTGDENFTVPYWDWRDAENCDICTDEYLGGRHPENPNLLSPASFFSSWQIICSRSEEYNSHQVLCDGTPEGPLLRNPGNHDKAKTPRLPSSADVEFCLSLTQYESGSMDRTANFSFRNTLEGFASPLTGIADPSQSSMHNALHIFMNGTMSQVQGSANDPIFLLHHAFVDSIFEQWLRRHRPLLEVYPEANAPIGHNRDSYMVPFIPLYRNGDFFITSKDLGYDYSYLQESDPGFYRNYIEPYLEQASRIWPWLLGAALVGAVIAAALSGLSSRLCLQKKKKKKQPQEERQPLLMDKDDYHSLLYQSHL

melan-a melanocytes = assay: Melanin assay / pigmentation of cultured melanocytes; assay type: cell-based, mouse
Method: The numbers above the bars indicate the percent increase in melanin production relative to the untreated control. For this assay, melan-a melanocytes were cultured in DMEM supplements with 10% FCS, 1% L-glutamine, 1% penicillin/streptomycin, and 40 nM TPA. The cultures were maintained at 37° C., 5% CO2. The cells were seeded at 5×10^4 cells per well in 24 well plates and treated for 72 hours. Photographs were taken after 72 hours at 40× magnification. The cells were harvested, centrifuged, and the protein was extracted from the pellet with 1:1 ethanol:ether. The melanin pellets were solubilized in 20% DMSO/2N NaOH. Samples were transferred to a 96-well plate and the optical density was read at 490 nm using a Biorad 550 spectrophotometer.
The cells were rinsed with phosphate buffered saline (PBS) and lysed with an extraction buffer of […] Tris, pH 7.5; 2 mM ethylenediamine tetraacetic acid (EDTA), pH 7.8; 150 mM NaCl; 1% Titron X-100, with protease inhibitor cocktail at 4° C. The cell extracts were then spun at 12,000 rpm for 10 minutes at 4° C. The remaining pellet was assayed for melanin by rinsing twice with ethanol-ether (1:1) and dissolving in 200 microL of 2N NaOH in 20% DMSO at 60° C. A 100 microL aliquot of the resulting solution was then measured for absorbance at […].

[3] = target: T2, mitochondrial F1F0 ATPase (Mus musculus, UniProt P56480+Q03265+Q9CR84); assay: Affinity chromatography on immobilized PPA (PPA-Affi) with competition, melanocyte extracts; assay type: binding; conditions: for competition with ATPase binding to PPA affinity matrix: melan-a extracts, competitor 30 minutes at 4° C., antibodies to beta and alpha subunits
T2 construct: endogenous in cells; host or cells: Melan-a murine melanocytes
Method: Melanocyte extracts were incubated with PPA-Affi in the presence of the compounds shown. After extensive washing, bound proteins were then eluted with SDS-containing buffer and subjected to SDS-PAGE and silver staining. […] The binding of mitochondrial ATPase was inhibited not only by PPA itself but also by oligomycin, a known mitochondrial ATPase inhibitor.
FIG. 5 is another illustration that mitochondrial ATPase is the target of PPA. The experimental protocol were similar to those described above, but rather than silver stain, immunoblotting was conducted with antibodies to the beta and alpha subunits of the mitochondrial ATPase. The primary antibody in A was anti-F1-ATPase beta subunit antibody (1:2500, 1 hour), and the primary antibody in B was anti-ATPase alpha subunit antibody (1:2500, 1 hour). The secondary antibody was anti-mouse Goat IgG (1:2500, 1 hour).
For this experiment, the cell source was Melan-a (murine melanocyte). The reaction volume was 147 microL of protein extract (0.3 mg/mL)+147 microL bead buffer+6 microL competitor (aurovertin or PPA6 or DMSO). The competition took place for 30 minutes at 4° C. with rocking. The bead volume was 40 microL of 50% slurry. The beads were washed with 1 mL bead buffer seven times. Elution was with 40 microL+30 microL Laemmli buffer, heating for 4 minutes at 90° C.
For the gel electrophoresis, the gel was 10% SDS-PAGE gel, 20-well combination. The loading volume was 25 microL (2nd elution). Running was 30V, overnight.
Protein was extracted from cells by incubation with extraction buffer (1 mM CaCl2, 150 mM NaCL; 10 mM Tris, pH 7.4; 1% Triton X-100, 1 mM PMSF plus protease inhibitor cocktail (Roche, NJ, USA) for five minutes on ice. Crude lysate was centrifuged at 13,000 rpm for ten minutes. The protein concentration of the supernatant was measured by the Bradford assay (Bio-Rad, CA) and adjusted to a final concentration of 1 microg/microL prior to affinity chromatography. […]

[4] = target: T3, mitochondrial ATPase (beta subunit, OSCP) (Homo sapiens, UniProt P05496+P06576+P48047); assay: PPA-Affi affinity binding and competition, SK Mel19 extracts; conditions: SK Mel19 protein extract
T3 construct: Using human melanoma cell source SK Mel 19, the reaction volume was 147 microL of protein extract; endogenous in cells; host or cells: SK Mel19 human melanoma cells
Method: (§1) Using human melanoma cell source SK Mel 19, the reaction volume was 147 microL of protein extract (1.0 mg/mL)+147 microL bead buffer+6 microL competitor (oligomycin) or S+DMSO. Competition was effected for 30 minutes at 4° C. with rocking. The bead volume was 40 microL of 50% slurry. Washing was five times with 1 mL bead buffer, and elution was with 40 microL Laemmli buffer, with heating for 4 minutes at 90° C. Gel electrophoresis was with 10% SDS-PAGE gel, 20 well combination. Loading volume was 35 microL, and running was 30V, overnight.
as §1, with “99” for “147”, “mg/mL)+99” for “mg/mL)+147”, “buffer+2” for “buffer+6”, “DMSO. Incubation” for “S+DMSO. Competition”, “100V for one hour.” for “30V, overnight.”

| Structure (SMILES) | secreted tyrosinase activity (tyrosinase [1]) | tyrosinase activity (tyrosinase [2]) | pigmentation (melanin production) (melan-a melanocytes) | competition with ATPase binding to PPA affinity matrix [3] | elution of beta subunit and OSCP bound to PPA-Affi [4] | inhibition of binding of mitochondrial ATPase to PPA-Affi ([3]; melanocyte extracts, SDS-PAGE and silver staining) |
| --- | --- | --- | --- | --- | --- | --- |
| CC(C)Cn1c(=O)n(C)c(=O)c2[nH]cnc21 [IBMX, 3-Isobutyl-1-methylxanthine] | large increase in secreted enzyme activity | only a marginal change |  |  |  |  |
| CC[C@H]1O[C@]2(C)[C@H](OC(C)=O)[C@@]1(C)O[C@@H](/C=C/C=C/C=C/c1oc(=O)cc(OC)c1C)[C@@H]2O [aurovertin, aurovertin B] |  |  | promote pigmentation | do not compete |  |  |
| NC(=S)Nc1ccccc1 [PTU, phenylthiourea] |  | significant decrease in tyrosinase activity |  |  |  |  |
| CC[C@H]1/C=C/C=C/C[C@@H](C)[C@H](O)[C@@](C)(O)C(=O)[C@@H](C)[C@H](O)[C@@H](C)C(=O)[C@@H](C)[C@H](O)[C@@H](C)/C=C/C(=O)O[C@@H]2[C@H](C)[C@H](CC1)O[C@]1(CC[C@H](C)[C@H](C[C@@H](C)O)O1)[C@H]2C [oligomycin, Oligomycin] |  |  | promote pigmentation | competed with ATPase binding | eluted by oligomycin | inhibited |
